pIC50: −log10 of the molar value.
Columns and labels:
[1] = Inhibitory concentration against human immunodeficiency virus type 1 (HIV-1 strain IIIB RT) reverse transcriptase was determined by triplicate assay at high (~1 pfu/cell) multiplicity of […] (moi)
[2] = Inhibitory concentration against human immunodeficiency virus type 1 (HIV-1 strain IIIB RT) reverse transcriptase was determined by triplicate assay at low (~0.1 pfu/cell) multiplicity of […] (moi)

| Compound | pIC50 [1] | pIC50 [2] |
| --- | --- | --- |
| Cc1cn([C@H]2C[C@H](N=[N+]=[N-])[C@@H](CO)O2)c(=O)[nH]c1=O [1-((2R,4S,5S)-4-Azido-5-hydroxymethyl-tetrahydro-furan-2-yl)-5-methyl-1H-pyrimidine-2,4-dione] | 7.77 | 8.52 |
| Nc1nc2c(ncn2/C=C2\CC2CO)c(=O)[nH]1 (stereo unspecified) [2-Amino-9-[2-hydroxymethyl-cycloprop-(E)-ylidenemethyl]-1,9-dihydro-purin-6-one] | < 4.52 | 5.72 |
| Nc1nc2c(ncn2/C=C2/CC2CO)c(=O)[nH]1 (stereo unspecified) [2-Amino-9-[2-hydroxymethyl-cycloprop-(Z)-ylidenemethyl]-1,9-dihydro-purin-6-one] | < 4.52 | 5.96 |
| Nc1ncnc2c1ncn2/C=C1/CC1CO (stereo unspecified) [[2-(6-Amino-purin-9-ylmethylene)-cyclopropyl]-methanol] | 4.70 | 6.10 |
| Nc1nc(Cl)c2ncn(/C=C3\CC3CO)c2n1 (stereo unspecified) [{2-[1-(2-Amino-6-chloro-purin-9-yl)-meth-(E)-ylidene]-cyclopropyl}-methanol] | – | < 4.00 |
| Nc1ncnc2c1ncn2/C=C1\CC1CO (stereo unspecified) [{2-[1-(6-Amino-purin-9-yl)-meth-(E)-ylidene]-cyclopropyl}-methanol] | < 4.00 | 4.85 |
